Results reported in ChEMBL document CHEMBL1125129, “Design of potent and selective linear antagonists of vasopressor (V1-receptor) responses to vasopressin” (J Med Chem, 1990).

How the values were obtained:
Vasopressin V1 receptor = Vasopressin V1 receptor (Rattus norvegicus, UniProt P48974+P30560); experiment: pA2 value was determined for Vasopressin V1 receptor antagonistic activity in vivo in anesthetized rats; type: functional, organism-based
[1] = molecular target: Vasopressin V2 receptor (Rattus norvegicus) (UniProt Q00788); experiment: Effective dose was determined for Vasopressin V2 receptor antagonistic activity in vivo in anesthetized rats; type: functional, organism-based
[2] = molecular target: Vasopressin V2 receptor (Rattus norvegicus) (UniProt Q00788); experiment: Selectivity ratio of antidiuretic Vasopressin V2 receptor ED /[…] receptor ED; conditions: Urine
[3] = molecular target: Vasopressin V1 receptor (Rattus norvegicus) (UniProt P48974+P30560); experiment: Effective dose was determined for Vasopressin V1 receptor antagonistic activity in vivo in anesthetized rats; type: functional, organism-based
Chain of Vasopressin V1 receptor (Rattus norvegicus) (P30560 whole entry, looked up): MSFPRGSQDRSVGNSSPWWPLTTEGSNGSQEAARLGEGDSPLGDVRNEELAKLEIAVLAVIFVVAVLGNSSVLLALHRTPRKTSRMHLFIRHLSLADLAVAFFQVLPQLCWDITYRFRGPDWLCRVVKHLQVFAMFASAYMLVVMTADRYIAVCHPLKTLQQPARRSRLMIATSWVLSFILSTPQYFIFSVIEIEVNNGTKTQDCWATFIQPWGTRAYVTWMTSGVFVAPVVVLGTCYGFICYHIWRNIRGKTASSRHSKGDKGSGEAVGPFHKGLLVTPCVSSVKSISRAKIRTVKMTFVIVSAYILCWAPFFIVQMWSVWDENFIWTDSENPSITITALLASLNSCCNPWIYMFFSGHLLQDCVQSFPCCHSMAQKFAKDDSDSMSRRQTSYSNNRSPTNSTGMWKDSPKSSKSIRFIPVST
Chain of Vasopressin V1 receptor (Rattus norvegicus) (P48974 whole entry, looked up): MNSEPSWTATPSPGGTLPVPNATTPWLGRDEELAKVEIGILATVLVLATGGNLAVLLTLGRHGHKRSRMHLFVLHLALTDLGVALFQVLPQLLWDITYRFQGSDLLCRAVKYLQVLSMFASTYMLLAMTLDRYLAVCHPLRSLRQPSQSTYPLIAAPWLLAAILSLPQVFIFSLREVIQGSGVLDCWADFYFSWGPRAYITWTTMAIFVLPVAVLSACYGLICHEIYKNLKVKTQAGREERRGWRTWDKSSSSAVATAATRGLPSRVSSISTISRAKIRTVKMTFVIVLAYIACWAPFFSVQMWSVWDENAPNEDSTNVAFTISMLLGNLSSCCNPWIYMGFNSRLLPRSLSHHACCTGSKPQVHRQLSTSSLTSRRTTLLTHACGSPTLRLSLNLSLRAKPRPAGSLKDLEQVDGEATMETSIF

Chain of Vasopressin V2 receptor (Rattus norvegicus) (Q00788 whole entry): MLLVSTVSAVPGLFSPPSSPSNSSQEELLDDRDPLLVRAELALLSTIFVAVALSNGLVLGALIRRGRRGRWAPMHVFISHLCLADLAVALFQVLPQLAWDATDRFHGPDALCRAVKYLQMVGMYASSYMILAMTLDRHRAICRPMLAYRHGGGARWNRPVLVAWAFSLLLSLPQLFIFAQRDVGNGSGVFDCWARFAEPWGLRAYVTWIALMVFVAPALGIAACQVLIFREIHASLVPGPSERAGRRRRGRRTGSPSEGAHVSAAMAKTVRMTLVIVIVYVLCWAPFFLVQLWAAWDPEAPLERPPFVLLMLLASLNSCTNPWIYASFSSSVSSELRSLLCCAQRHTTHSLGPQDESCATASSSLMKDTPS

Compound | Effective dose [1] | Ratio [2] | Effective dose [3] | pA2 (Vasopressin V1 receptor)
CC(C)[C@H](NC(=O)[C@H](Cc1ccccc1)NC(=O)[C@@H](Cc1ccc(O)cc1)NC(=O)Cc1ccccc1)C(=O)N[C@@H](CC(N)=O)C(=O)N[C@@H](CCCN=C(N)N)C(=O)N1CCC[C@H]1C(=O)N[C@@H](CCCN=C(N)N)C(=O)N[C@@H](CCCN=C(N)N)C(N)=O |  |  |  | 8.62
CCOc1ccc(C[C@@H](NC(=O)CC23CC4CC(CC(C4)C2)C3)C(=O)N[C@@H](Cc2ccccc2)C(=O)N[C@H](C(=O)N[C@@H](CC(N)=O)C(=O)N[C@@H](CCCN)C(=O)N2CCC[C@@H]2C(=O)N[C@@H](CCCN=C(N)N)C(=O)N[C@@H](CCCN=C(N)N)C(N)=O)C(C)C)cc1 | 0.9 nM/kg | 0.6 | 1.6 nM/kg | 
CCOc1ccc(C[C@@H](NC(=O)CC(C)(C)C)C(=O)N[C@@H](Cc2ccccc2)C(=O)N[C@@H](CCC(N)=O)C(=O)N[C@@H](CC(N)=O)C(=O)N[C@@H](CCCCN)C(=O)N2CCC[C@@H]2C(=O)N[C@@H](CCCN=C(N)N)C(N)=O)cc1 | > 410 nM/kg | > 1500 | 0.27 nM/kg | 
CCOc1ccc(C[C@@H](NC(=O)CC(C)(C)C)C(=O)N[C@@H](Cc2ccccc2)C(=O)N[C@H](C(=O)N[C@@H](CC(N)=O)C(=O)N[C@@H](CCCCN)C(=O)N2CCC[C@@H]2C(=O)N[C@@H](CCCN=C(N)N)C(N)=O)C(C)C)cc1 | > 7 nM/kg | 41 | 0.17 nM/kg | 
CC(C)[C@H](NC(=O)[C@H](Cc1ccccc1)NC(=O)[C@@H](Cc1ccc(O)cc1)NC(=O)CC12CC3CC(CC(C3)C1)C2)C(=O)N[C@@H](CC(N)=O)C(=O)N[C@@H](CCCN=C(N)N)C(=O)N1CCC[C@@H]1C(=O)N[C@@H](CCCN=C(N)N)C(=O)N[C@@H](CCCN=C(N)N)C(N)=O | 1.7 nM/kg | 4.3 |  | 
CCOc1ccc(C[C@@H](NC(=O)CC23CC4CC(CC(C4)C2)C3)C(=O)N[C@@H](Cc2ccccc2)C(=O)N[C@H](C(=O)N[C@@H](CC(N)=O)C(=O)N[C@@H](CCCN)C(=O)N2CCC[C@@H]2C(=O)N[C@@H](CCCN=C(N)N)C(N)=O)C(C)C)cc1 | 1.1 nM/kg | 0.3 | 3.2 nM/kg | 
CCOc1ccc(C[C@@H](NC(=O)CC23CC4CC(CC(C4)C2)C3)C(=O)N[C@@H](Cc2ccccc2)C(=O)N[C@H](C(=O)N[C@@H](CC(N)=O)C(=O)N[C@@H](CCCN=C(N)N)C(=O)N2CCC[C@@H]2C(=O)N[C@@H](CCCN=C(N)N)C(N)=O)C(C)C)cc1 | 1.4 nM/kg | 2.1 | 0.66 nM/kg | 
CCOc1ccc(C[C@@H](NC(=O)CC23C[C@H]4C[C@@H](C2)C[C@@H](C3)C4)C(=O)N[C@@H](Cc2ccccc2)C(=O)N[C@H](C(=O)N[C@@H](CC(N)=O)C(=O)NCCCC(=O)N2CCC[C@@H]2C(=O)N[C@@H](CCCN=C(N)N)C(=O)N[C@@H](CCCN=C(N)N)C(N)=O)C(C)C)cc1 | 0.53 nM/kg | 0.44 | 1.2 nM/kg | 
CCOc1ccc(C[C@H]2NC(=O)CC3(CCCCC3)SSC[C@H](C(=O)N3CCC[C@H]3C(=O)N[C@@H](CCCN=C(N)N)C(N)=O)NC(=O)[C@@H](CC(N)=O)NC(=O)[C@H](C(C)C)NC(=O)[C@@H](Cc3ccccc3)NC2=O)cc1 | 1.5 nM/kg | 3.3 | 0.45 nM/kg | 
CCOc1ccc(C[C@@H](NC(=O)CC23CC4CC(CC(C4)C2)C3)C(=O)N[C@@H](Cc2ccccc2)C(=O)N[C@H](C(=O)N[C@@H](CC(N)=O)C(=O)N[C@@H](CCCCN)C(=O)N2CCC[C@@H]2C(=O)N[C@@H](CCCN=C(N)N)C(N)=O)C(C)C)cc1 | 1.1 nM/kg | 1.7 | 0.66 nM/kg | 
NCCCC[C@H](NC(=O)[C@H](CC(N)=O)NC(=O)[C@H](CCC(N)=O)NC(=O)[C@H](Cc1ccccc1)NC(=O)[C@@H](Cc1ccc(O)cc1)NC(=O)Cc1ccccc1)C(=O)N1CCC[C@@H]1C(=O)N[C@@H](CCCN=C(N)N)C(N)=O | 5 nM/kg | 59 | 0.085 nM/kg | 
CCOc1ccc(C[C@@H](NC(=O)CC(C)(C)C)C(=O)N[C@@H](Cc2ccccc2)C(=O)N[C@H](C(=O)N[C@@H](CC(N)=O)C(=O)NCCCC(=O)N2CCC[C@@H]2C(=O)N[C@@H](CCCN=C(N)N)C(=O)N[C@@H](CCCN=C(N)N)C(N)=O)C(C)C)cc1 | 0.83 nM/kg | 1.2 | 0.71 nM/kg | 
CCOc1ccc(C[C@H]2NC(=O)CC3(CCCCC3)SSC[C@H](C(=O)N3CCC[C@H]3C(=O)N[C@@H](CCCN=C(N)N)C(=O)NCC(N)=O)NC(=O)[C@@H](CC(N)=O)NC(=O)[C@H](C(C)C)NC(=O)[C@@H](Cc3ccccc3)NC2=O)cc1 | 1.1 nM/kg |  | 0.45 nM/kg | 8.22

The next lines start with results.

Effective dose [1] | Ratio [2] | Effective dose [3] | Compound | pA2 (Vasopressin V1 receptor)
40 nM/kg | 570 | 0.07 nM/kg | CCOc1ccc(C[C@@H](NC(=O)Cc2ccccc2)C(=O)N[C@@H](Cc2ccccc2)C(=O)N[C@@H](CCC(N)=O)C(=O)N[C@@H](CC(N)=O)C(=O)N[C@@H](CCCCN)C(=O)N2CCC[C@@H]2C(=O)N[C@@H](CCCN=C(N)N)C(N)=O)cc1 | 
2.9 nM/kg | 26 | 0.11 nM/kg | CCOc1ccc(C[C@@H](NC(=O)Cc2ccccc2)C(=O)N[C@@H](Cc2ccccc2)C(=O)N[C@H](C(=O)N[C@@H](CC(N)=O)C(=O)N[C@@H](CCCCN)C(=O)N2CCC[C@@H]2C(=O)N[C@@H](CCCN=C(N)N)C(N)=O)C(C)C)cc1 | 
0.69 nM/kg | 2.7 | 0.26 nM/kg | CCOc1ccc(C[C@@H](NC(=O)Cc2ccccc2)C(=O)N[C@@H](Cc2ccccc2)C(=O)N[C@H](C(=O)N[C@@H](CC(N)=O)C(=O)NCCCC(=O)N2CCC[C@@H]2C(=O)N[C@@H](CCCN=C(N)N)C(=O)N[C@@H](CCCN=C(N)N)C(N)=O)C(C)C)cc1 | 
9.8 nM/kg | 41 | 0.24 nM/kg | CCOc1ccc(C[C@@H](NC(=O)Cc2ccccc2)C(=O)N[C@@H](Cc2ccccc2)C(=O)N[C@H](C(=O)N[C@@H](CC(N)=O)C(=O)N[C@@H](CCCCN)C(=O)N2CCC[C@@H]2C(=O)N[C@@H](CCCN=C(N)N)C(=O)N[C@@H](CCCN=C(N)N)C(N)=O)C(C)C)cc1 | 
 |  | 0.16 nM/kg | CC(C)[C@H](NC(=O)[C@H](Cc1ccccc1)NC(=O)[C@@H](Cc1ccc(O)cc1)NC(=O)Cc1ccccc1)C(=O)N[C@@H](CC(N)=O)C(=O)N[C@@H](CCCN=C(N)N)C(=O)N1CCC[C@@H]1C(=O)N[C@@H](CCCN=C(N)N)C(=O)N[C@@H](CCCN=C(N)N)C(N)=O | 
> 24 nM/kg | > 290 | 0.083 nM/kg | COc1ccc(C[C@@H](NC(=O)Cc2ccccc2)C(=O)N[C@@H](Cc2ccccc2)C(=O)N[C@@H](CCC(N)=O)C(=O)N[C@@H](CC(N)=O)C(=O)N[C@@H](CCCCN)C(=O)N2CCC[C@@H]2C(=O)N[C@@H](CCCN=C(N)N)C(N)=O)cc1 | 
4 nM/kg | 14 | 0.29 nM/kg | CCOc1ccc(C[C@@H](NC(=O)Cc2ccccc2)C(=O)N[C@@H](Cc2ccccc2)C(=O)N[C@H](C(=O)N[C@@H](CC(N)=O)C(=O)N[C@@H](CCCN)C(=O)N2CCC[C@@H]2C(=O)N[C@@H](CCCN=C(N)N)C(=O)N[C@@H](CCCN=C(N)N)C(N)=O)C(C)C)cc1 | 
1.4 nM/kg | 2.8 | 0.5 nM/kg | CCOc1ccc(C[C@@H](NC(=O)CC23CC4CC(CC(C4)C2)C3)C(=O)N[C@@H](Cc2ccccc2)C(=O)N[C@H](C(=O)N[C@@H](CC(N)=O)C(=O)N[C@@H](CCCCN)C(=O)N2CCC[C@@H]2C(=O)N[C@@H](CCCN=C(N)N)C(=O)N[C@@H](CCCN=C(N)N)C(N)=O)C(C)C)cc1 | 
